For 23 molecules, Activity, solubility and IC50 results are on record in ChEMBL document CHEMBL4673385, “Discovery of Potent Inhibitors of Streptococcus mutans Biofilm with Antivirulence Activity” (ACS Med Chem Lett, 2021).

≈ marks a conversion by molar mass, not a printed value. Calls of active or inactive are those of the source. How the calls were made is not given here.

Data set [1] concerns Streptococcus mutans. Put plainly: Bactericidal activity against Streptococcus mutans UA159 assessed as reduction in bacterial growth at 100 uM after 24 hrs. Type of data set: functional, organism-based.
Data set [2] is described as follows: Solubility of compound in water. Type of data set: physicochemical.
Data set [3] deals with Streptococcus mutans. Put plainly: Antibiofilm activity against Streptococcus mutans UA159 assessed as inhibition of biofilm formation by serial dilution method. It is filed as functional, organism-based.
Where [4] appears, read: Streptococcus mutans, UA159, read-out: IC50.

Regarding `COc1ccc2[nH]c(C(=O)Nc3ccccc3CN)cc2c1`, the result in the data set on Streptococcus mutans [1] was inactive. Also, the solubility result in data set [2] (buffer) is reported as “Insoluble”. Besides, the half-inhibitory concentration (IC50) result with Streptococcus mutans [3] is given as “Nd(Insoluble)”.

As for `NC(=O)c1ccccc1NC(=O)c1ccc2ccccc2c1`, the outcome in the data set with Streptococcus mutans [1] was inactive. Also, in data set [2] (water, read-out: solubility), the solubility is 25 µg/mL (≈ 86.1 µM). The half-inhibitory concentration (IC50) with Streptococcus mutans [3] (setting [4]) worked out at 84.1 µM.

For `NC(=O)c1ccc(NC(=O)c2ccc(-c3ccccc3)cc2)cc1`, in the data set on Streptococcus mutans [1], the result was inactive. The solubility in data set [2] (water, read-out: solubility) was less than 5 µg/mL. Moreover, the IC50 in the data set on Streptococcus mutans [3] (setting [4]) is more than 300 µM.

For `NCc1ccccc1NC(=O)c1ccc2ccccc2n1`, in the data set on Streptococcus mutans [1], the result was inactive. Moreover, in data set [2] (water, read-out: solubility), the solubility came out at 25 µg/mL (≈ 90.1 µM). Besides, the half-maximal inhibitory concentration (IC50) in the data set with Streptococcus mutans [3] (setting [4]) was determined as 202 µM.

Consider `O=C(Nc1ccccc1)c1cc2cc([N+](=O)[O-])ccc2s1`, for which the result in the data set with Streptococcus mutans [1] was inactive. Further, the solubility in data set [2] (water, read-out: solubility) amounted to 10 µg/mL (≈ 33.5 µM). For the same molecule, the IC50 in the data set with Streptococcus mutans [3] (setting [4]) was more than 300 µM.

As for `COC(=O)c1cccc(NC(=O)c2cc3cc([N+](=O)[O-])ccc3[nH]2)c1`, the result with Streptococcus mutans [1] was inactive. Further, the solubility result in data set [2] (buffer) was “Insoluble”. Besides, the IC50 entry in the data set with Streptococcus mutans [3] is “Nd(Insoluble)”.

`NC(=O)c1ccc(NC(=O)c2ccc3ccccc3c2)cc1`: the result in the data set on Streptococcus mutans [1] was inactive. In addition, the solubility in data set [2] (water, read-out: solubility) was less than 5 µg/mL. For the same molecule, in the data set on Streptococcus mutans [3] (setting [4]), the IC50 is 110 µM.

For the molecule `COC(=O)c1ccccc1NC(=O)c1cnc2ccccc2c1`, in the data set with Streptococcus mutans [1], the result was inactive. In addition, the solubility in data set [2] (water, read-out: solubility) was less than 5 µg/mL. For the same molecule, the IC50 with Streptococcus mutans [3] (setting [4]) is 142 µM.

Take `COC(=O)c1ccc(NC(=O)c2cnc3ccccc3c2)cc1`: the result with Streptococcus mutans [1] was inactive. In data set [2] (water, read-out: solubility), the solubility was less than 5 µg/mL. Moreover, in the data set on Streptococcus mutans [3] (setting [4]), the IC50 was 92.3 µM.

`O=C(Nc1ccccc1)c1cc2cc([N+](=O)[O-])ccc2[nH]1`: the outcome with Streptococcus mutans [1] was inactive. The solubility result in data set [2] (buffer) is given as “Insoluble”. For the same molecule, the IC50 entry with Streptococcus mutans [3] is “Nd(Insoluble)”.

As for `COc1ccc2[nH]c(C(=O)Nc3cccc(C(N)=O)c3)cc2c1`, the outcome in the data set on Streptococcus mutans [1] was inactive. Also, the solubility in data set [2] (water, read-out: solubility) was 5 µg/mL (≈ 16.2 µM). Besides, the half-inhibitory concentration (IC50) with Streptococcus mutans [3] (setting [4]) turned out to be 56.6 µM.

As to `NC(=O)c1ccccc1NC(=O)c1cc2ccccc2s1`, the result with Streptococcus mutans [1] was inactive. Moreover, the solubility in data set [2] (water, read-out: solubility) is less than 5 µg/mL. Besides, in the data set on Streptococcus mutans [3] (setting [4]), the IC50 stood at 45.6 µM.

For `COc1ccc2[nH]c(C(=O)Nc3ccccc3)cc2c1`, the result with Streptococcus mutans [1] was inactive. The solubility result in data set [2] (buffer) is listed as “Insoluble”. Also, in the data set with Streptococcus mutans [3], the IC50 entry is recorded as “Nd(Insoluble)”.

Regarding `COC(=O)c1ccccc1NC(=O)c1ccc2ccccc2n1`, the result with Streptococcus mutans [1] was inactive. The solubility in data set [2] (water, read-out: solubility) was less than 5 µg/mL. Besides, the IC50 in the data set on Streptococcus mutans [3] (setting [4]) amounted to 89.5 µM.

For `COC(=O)c1cccc(NC(=O)c2ccc(-c3ccccc3)cc2)c1`, in the data set on Streptococcus mutans [1], the result was inactive. Moreover, in data set [2] (water, read-out: solubility), the solubility is less than 5 µg/mL. Besides, the IC50 in the data set on Streptococcus mutans [3] (setting [4]) was 105 µM.

With `NC(=O)c1ccccc1NC(=O)c1ccc(-c2ccccc2)cc1`, the result in the data set with Streptococcus mutans [1] was inactive. Further, the solubility in data set [2] (water, read-out: solubility) was found to be 5 µg/mL (≈ 15.8 µM). Besides, the IC50 with Streptococcus mutans [3] (setting [4]) turned out to be 193 µM.

Take `COc1ccc2[nH]c(C(=O)Nc3ccccc3CNC(=O)OC(C)(C)C)cc2c1`: the outcome in the data set with Streptococcus mutans [1] was inactive. In addition, the solubility result in data set [2] (buffer) is “Insoluble”. Further, the half-maximal inhibitory concentration (IC50) entry in the data set with Streptococcus mutans [3] is “Nd(Insoluble)”.

In the case of `CC(C)(C)OC(=O)NCc1ccccc1NC(=O)c1ccc(-c2ccccc2)cc1`, in the data set on Streptococcus mutans [1], the outcome was inactive. The solubility in data set [2] (water, read-out: solubility) was less than 5 µg/mL. In addition, the IC50 in the data set with Streptococcus mutans [3] (setting [4]) was found to be 124 µM.

Regarding `O=C(Nc1ccccc1)c1cnc2ccccc2c1`, in the data set on Streptococcus mutans [1], the result was inactive. In addition, the solubility in data set [2] (water, read-out: solubility) turned out to be 5 µg/mL (≈ 20.1 µM). Also, in the data set with Streptococcus mutans [3] (setting [4]), the IC50 was more than 300 µM.

In the case of `NC(=O)c1ccccc1NC(=O)c1ccc2ccccc2n1`, the outcome with Streptococcus mutans [1] was inactive. In addition, in data set [2] (water, read-out: solubility), the solubility is 10 µg/mL (≈ 34.3 µM). Besides, the IC50 with Streptococcus mutans [3] (setting [4]) amounted to 165 µM.

With `NC(=O)c1cccc(NC(=O)c2ccc(-c3ccccc3)cc2)c1`, the outcome in the data set on Streptococcus mutans [1] was inactive. Further, in data set [2] (water, read-out: solubility), the solubility was 25 µg/mL (≈ 79 µM). Moreover, the IC50 with Streptococcus mutans [3] (setting [4]) worked out at 79.9 µM.

For the molecule `COC(=O)c1ccccc1NC(=O)c1cc2cc([N+](=O)[O-])ccc2[nH]1`, the result with Streptococcus mutans [1] was inactive. Besides, the solubility entry in data set [2] (buffer) is given as “Insoluble”. For the same molecule, in the data set with Streptococcus mutans [3], the IC50 entry is reported as “Nd(Insoluble)”.

As for `O=C(Nc1ccccc1)c1ccc2ccccc2n1`, the result in the data set with Streptococcus mutans [1] was inactive. In data set [2] (water, read-out: solubility), the solubility was found to be 25 µg/mL (≈ 101 µM). Further, the IC50 in the data set on Streptococcus mutans [3] (setting [4]) is more than 300 µM.

The term solubility denotes the dissolved amount per volume that the medium holds. The IC50 is the concentration that gives 50% inhibition.
